From paper PMC6102670, “Three New Highly Oxygenated Germacranolides from Carpesium Divaricatum and Their Cytotoxic Activity” (Molecules : A Journal of Synthetic Chemistry and Natural …, 2018) come the findings set out here.

Like-named read-outs stand apart in the source and are kept apart here. Some results are limits rather than exact numbers.

Common to all, as to type: cell-based, Human
Holding throughout (details): 4 days incubation, mean ± SD, triplicate

The test system of test [1] is A549 lung cancer cell line. Nature of the test: MTT cytotoxicity assay, A549 cells. The method, then:
(§1) Cell cultures: Human A549, HepG2, and HeLa cell lines from Cancer Institute and Hospital of Chinese Academy of Medical Sciences (Beijing, China), were cultured in Dulbecco’s modified Eagle’s medium (DMEM, Gibco, CA, USA) supplemented with 10% (v/v) fetal calf serum (Gibco, CA, USA), penicillin G (Macgene, China) 100 units mL^−1 and streptomycin (Macgene, China) 100 μg mL^−1, at 37 °C under 5% CO2.
(§2) Cell viability assay: The assay was run in triplicate. In a 96-well plate, each well was plated with 2 × 10^4 cells. After cell attachment overnight, the medium was removed, and each well was treated with 100 μL of medium containing 0.1% DMSO or different concentrations of the test compounds and the positive control cis-platin. The plate was incubated at 37 °C for 4 days in a humidified, 5% CO2 atmosphere. Cytotoxicity was determined using a modified 3-(4,5-dimethylthiazol-2-yl)-2,5-diphenyltetrazolium bromide (MTT) colorimetric assay. After the addition of a 10 μL MTT solution (5 mg/mL), cells were incubated at 37 °C for 4 h. After adding 150 μL DMSO, cells were shaken to mix thoroughly. The absorbance of each well was measured at 540 nm in a Multiscan photometer.
(§3) Statistical analysis: Values were expressed as mean ± SD. Statistical analyses were performed using the Student’s t-test. Differences were considered significant when associated with a probability of 5% or less (p ≤ 0.05).
In general terms: Tetrazolium assays rely on reduction of a dye to a coloured formazan, in cell work by metabolically active cells.

Test [2] concerns Hep G2 hepatocellular cancer cell line. Nature of the test: MTT cytotoxicity assay, Hep G2 cells. The method, then:
as §1, §2, §3

Test [3] has as its system HeLa cervical cancer cell line. In words: MTT cytotoxicity assay, HeLa cells. Here is the method:
as §1, §2, §3

The term IC50 denotes the concentration that gives 50% inhibition. As for `C=C1C(=O)O[C@H]2[C@H]1[C@@H](O)[C@H](OC(=O)CC(C)C)[C@H](C)CCC(=O)[C@](C)(O)[C@@H]2OC(=O)C(C)C` [Compound 1, 4β,8α-dihydroxy-5β-isobutyryloxy-9β-3-methylbutyryloxy-3-oxo-germacran-6α, 12-olide], the 50% inhibitory concentration (IC50) in test [1] (Homo sapiens, 96 h) is more than 40 µM; in test [2] (Homo sapiens, HepG2, 96 h), 17 ± 2.23 µM; in test [3] (Homo sapiens, 96 h) it was 29.39 ± 0.17 µM.
Regarding `C=C1C(=O)O[C@H]2[C@H]1[C@@H](O)[C@H](OC(=O)CC(C)C)[C@H](C)CCC(=O)[C@](C)(O)[C@@H]2OC(=O)CC(C)C` [Compound 2, divarolide E], the IC50 worked out at 30.7 ± 0.51 µM in test [1] (Homo sapiens, 96 h); 7.47 ± 0.21 µM in test [2] (Homo sapiens, HepG2, 96 h); 16.8 ± 0.27 µM in test [3] (Homo sapiens, 96 h).
The corresponding values for `C=C(C)C(=O)O[C@H]1[C@H](O)[C@H]2C(=C)C(=O)O[C@@H]2[C@@H](OC(=O)C(C)C)[C@@](C)(O)C(=O)CC[C@H]1C` [Compound 3, divarolide F] are more than 40 µM, more than 40 µM and more than 40 µM.
The matching figures for `C=C1C(=O)OC2C1C(O)C(OC(=O)C(C)CC)C(C)CCC(=O)C(C)(O)C2OC(=O)C(C)CC` (stereo not drawn) [Compound 4, divarolide G]: more than 40 µM, more than 40 µM and more than 40 µM.
As to `C=C1C(=O)O[C@H]2[C@H]1[C@@H](O)[C@H](OC(=O)CC(C)C)[C@H](C)CCC(=O)[C@](C)(O)[C@@H]2OC(=O)C(C)CC` (stereo partly drawn) [Compound 5, 4β,8α-dihydroxy-5β-2-methylbutyryloxy-9β-3-methylbutyryloxy-3-oxo-germacran-7β, 12α-olide], the IC50 in test [1] (Homo sapiens, 96 h) was more than 40 µM; in test [2] (Homo sapiens, HepG2, 96 h), 31.64 ± 0.16 µM; in test [3] (Homo sapiens, 96 h), 11.6 ± 1 µM.
Take `N.N.[Cl][Pt][Cl]` [cis-platin, reference compound]: the IC50 was found to be 7.9 ± 0.23 µM in test [1], 13 ± 1.49 µM in test [2] (read-out: IC50 (μM) HepG2) and 15.3 ± 0.35 µM in test [3].
